Experimental data taken from patent US20080021026A1, “BENZOTHIOPHENE INHIBITORS OF RHO KINASE” (priority 2006, published 2008).

Tests used:
[1] = molecular target: T1, recombinant N-terminal GST-tagged human Rho kinase 2 (ROCK2, amino acids 1-552) (Homo sapiens, UniProt O75116); test: In vitro Rho kinase assay (luciferase-based ATP consumption), ROCK2; format: biochemical; details: recombinant GST-tagged human ROCK2, luciferase-based ATP consumption; read-out: ROCK2 IC50
T1 construct: ROCK2, amino acids 1-552; purchased Invitrogen Inc. PV3759
Summary of the method: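 GST-ROCK2 (aa 1-552, 0.82 μg/ml) with 100 μg/ml S6 peptide and 3 µM ATP in Tris pH 7.5 buffer with MgCl2/CaCl2/EGTA/BSA, compound added just after reaction start, 2 h at 30 °C. Remaining ATP read by luciferase luminescence. Efficacy expressed as percentage of H-1152P positive control.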

[2] = molecular target: T2, recombinant N-terminal GST-tagged human Rho kinase 1 (ROCK1, amino acids 1-535) (Homo sapiens, UniProt Q13464); test: In vitro Rho kinase assay (luciferase-based ATP consumption), ROCK1; format: biochemical; details: recombinant GST-tagged human ROCK1, luciferase-based ATP consumption; read-out: ROCK1 IC50
T2 construct: ROCK1, amino acids 1-535; purchased Invitrogen Inc. PV-3691
Summary of the method: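 GST-ROCK1 (aa 1-535) at 0.82 μg/ml with 100 μg/ml S6 peptide and 3 µM ATP in Tris pH 7.5 buffer with MgCl2, CaCl2, EGTA, BSA; compound added after reaction start, 2 h at 30 °C. Remaining ATP read by luciferase luminescence; efficacy as percent of H-1152P positive control.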

[3] = tested on: lasered (hypertensive) eyes of conscious cynomolgus monkeys; test: Acute IOP response in lasered (hypertensive) eyes of conscious cynomolgus monkeys; format: in vivo; details: instilled in right eye, IOP measured at 1, 3 and 6 hours, peak reduction; for Peak % Lowering of IOP vs. Control at 0.3%: compound concentration 0.3%
Excerpt: Acute IOP Response in Lasered (Hypertensive) Eyes of Conscious Cynomolgus Monkeys
Intraocular pressure (IOP) can be determined with an Alcon Pneumatonometer after light corneal anesthesia with 0.1% proparacaine. Eyes are washed with saline after each measurement. After a baseline IOP measurement, test compound is instilled in one […] aliquot to the right eyes only of nine cynomolgus monkeys. Vehicle is instilled in the right eyes of six additional animals. Subsequent IOP measurements are taken at 1, 3, and 6 hours, and peak reduction in IOP is reported below in Table 2 as percent of IOP lowering versus the control for each of the given concentrations of compound.
A more detailed description of the assay used herein may be found in May et al., “Evaluation of the Ocular Hypotensive Response of Serotonin 5-HT1A and 5-HT2 Receptor Ligands in Conscious Ocular Hypertensive Cynomolgus Monkeys,” J. of Pharmacology and Experimental Therapeutics, vol. 306(1), pp. 301-309 (2003), the disclosure of which is hereby incorporated by reference as if written herein in its entirety.

T2 sequence (Q13464 1-535): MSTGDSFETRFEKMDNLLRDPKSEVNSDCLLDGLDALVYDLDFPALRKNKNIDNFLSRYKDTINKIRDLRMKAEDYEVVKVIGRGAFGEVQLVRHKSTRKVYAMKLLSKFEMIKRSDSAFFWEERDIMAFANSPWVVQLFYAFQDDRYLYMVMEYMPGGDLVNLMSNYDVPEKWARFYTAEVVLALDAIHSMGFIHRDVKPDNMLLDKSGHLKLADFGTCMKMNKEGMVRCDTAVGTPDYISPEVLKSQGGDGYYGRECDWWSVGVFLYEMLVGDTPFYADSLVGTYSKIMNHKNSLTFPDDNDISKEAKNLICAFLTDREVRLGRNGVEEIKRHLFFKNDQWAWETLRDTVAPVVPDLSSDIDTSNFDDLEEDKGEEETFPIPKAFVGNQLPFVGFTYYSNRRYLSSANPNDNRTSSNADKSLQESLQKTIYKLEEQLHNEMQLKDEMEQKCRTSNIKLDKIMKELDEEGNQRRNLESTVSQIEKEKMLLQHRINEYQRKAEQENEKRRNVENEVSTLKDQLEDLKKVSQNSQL
T1 sequence (O75116 1-552): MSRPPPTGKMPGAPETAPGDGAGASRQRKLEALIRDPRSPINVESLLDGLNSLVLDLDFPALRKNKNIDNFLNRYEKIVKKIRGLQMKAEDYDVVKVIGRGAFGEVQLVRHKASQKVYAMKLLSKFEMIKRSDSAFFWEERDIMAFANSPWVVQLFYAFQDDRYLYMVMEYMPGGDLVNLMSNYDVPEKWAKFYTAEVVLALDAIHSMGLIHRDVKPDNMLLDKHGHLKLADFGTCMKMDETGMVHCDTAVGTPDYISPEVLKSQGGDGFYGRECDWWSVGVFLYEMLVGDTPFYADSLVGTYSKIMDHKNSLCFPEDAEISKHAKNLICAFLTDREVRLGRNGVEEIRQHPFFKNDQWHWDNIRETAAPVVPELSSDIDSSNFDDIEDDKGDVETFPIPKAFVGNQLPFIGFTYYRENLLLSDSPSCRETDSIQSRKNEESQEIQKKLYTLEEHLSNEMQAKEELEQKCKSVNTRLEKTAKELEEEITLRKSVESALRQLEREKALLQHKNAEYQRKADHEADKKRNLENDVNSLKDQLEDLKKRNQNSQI

Row | SMILES | IC50 [1] | IC50 [2] | Peak % Lowering of IOP vs. Control at 0.3% [3] | Peak % Lowering of IOP vs. Control at 1.0% ([3]; compound concentration 1.0%)
1 | COc1cccc(Nc2ccc3sc(-c4ccnc(N)n4)c(C)c3c2)c1 [Example 51, 4-(5-(3-Methoxyphenylamino)-3-methylbenzo[b]thiophen-2-yl)pyrimidin-2-amine] | < 5 µM | < 5 µM | 9.5% | 18.6%
2 | COc1cccc(Cc2ccc3sc(-c4ccnc(N)n4)c(C)c3c2)c1 [Example 26, 4-(5-(3-Methoxybenzyl)-3-methylbenzo[b]thiophen-2-yl)pyrimidin-2-amine] | < 5 µM | < 5 µM | 9.8% | 
3 | Cc1c(-c2ccnc(N)n2)sc2ccc(Cc3cccc(O)c3)cc12 [Example 27, 3-((2-(2-Aminopyrimidin-4-yl)-3-methylbenzo[b]thiophen-5-yl)methyl)phenol] | < 5 µM | < 5 µM | 3.6% | 
4 | Cc1c(-c2ccnc(N)n2)sc2ccc(CNC(=O)c3ccc(-c4ccc(O)cc4)cc3)cc12 [Example 285, Cc1c(sc2ccc(CNC(═O)c3ccc(cc3)-c4ccc(O)cc4)cc12)-c5ccnc(N)n5] | < 5 µM | > 5 µM |  | 
5 | Cc1c(-c2ccnc(N)n2)sc2ccc(CNC(=O)C(Cl)(Cl)Cl)cc12 [Example 160, Cc1c(sc2ccc(CNC(═O)C(Cl)(Cl)Cl)cc12)-c3ccnc(N)n3] | < 5 µM | < 5 µM |  | 
6 | Cc1c(-c2ccnc(N)n2)sc2ccc(CNC(=O)CCc3nc4ccccc4[nH]3)cc12 [Example 244, Cc1c(sc2ccc(CNC(═O)CCc3nc4ccccc4[nH]3)cc12)-c5ccnc(N)n5] | < 5 µM | < 5 µM |  | 
7 | Cc1c(-c2ccnc(N)n2)sc2ccc(CNC(=O)c3cc(Cl)c(O)c(Cl)c3)cc12 [Example 275, Cc1c(sc2ccc(CNC(═O)c3cc(Cl)c(O)c(Cl)c3)cc12)-c4ccnc(N)n4] | > 5 µM | < 5 µM |  | 
8 | Cc1c(-c2ccnc(N)n2)sc2ccc(CNC(=O)Cc3ccc(O)c(Cl)c3)cc12 [Example 234, Cc1c(sc2ccc(CNC(═O)Cc3ccc(O)c(Cl)c3)cc12)-c4ccnc(N)n4] | < 5 µM | < 5 µM |  | 
9 | Cc1ccc(C(=O)NCc2ccc3sc(-c4ccnc(N)n4)c(C)c3c2)c(C)c1 [Example 131, Cc1ccc(c(C)c1)C(═O)NCc2ccc3sc(c(C)c3c2)-c4ccnc(N)n4] | < 5 µM | < 5 µM |  | 
10 | COc1ccc(Cl)cc1C(=O)NCc1ccc2sc(-c3ccnc(N)n3)c(C)c2c1 [Example 232, COc1ccc(Cl)cc1C(═O)NCc2ccc3sc(c(C)c3c2)-c4ccnc(N)n4] | < 5 µM | > 5 µM |  | 
11 | COC(=O)c1ccc(C(=O)Nc2cccc(Nc3ccc4sc(-c5ccnc(N)n5)c(C)c4c3)c2)cc1 [Example 62, Methyl 4-(3-(2-(2-aminopyrimidin-4-yl)-3-methylbenzo[b]thiophen-5-ylamino)phenylcarbamoyl)benzoate] | < 5 µM | < 5 µM |  | 
12 | Cc1c(-c2ccnc(N)n2)sc2ccc(CNC(=O)c3ccc(N(C)C=O)cc3)cc12 [Example 205, CN(C═O)c1ccc(cc1)C(═O)NCc2ccc3sc(c(C)c3c2)-c4ccnc(N)n4] | < 5 µM | < 5 µM |  | 
13 | CCc1ccc(C(=O)NCc2ccc3sc(-c4ccnc(N)n4)c(C)c3c2)cc1 [Example 137, CCc1ccc(cc1)C(═O)NCc2ccc3sc(c(C)c3c2)-c4ccnc(N)n4] | > 5 µM | > 5 µM |  | 
14 | Cc1c(C(=O)NCc2ccc3sc(-c4ccnc(N)n4)c(C)c3c2)cccc1[N+](=O)[O-] [Example 218, Cc1c(cccc1[N+]([O−])═O)C(═O)NCc2ccc3sc(c(C)c3c2)-c4ccnc(N)n4] | < 5 µM | > 5 µM |  | 
15 | Cc1c(-c2ccnc(N)n2)sc2ccc(CNC(=O)c3cc(O)c(O)c(O)c3)cc12 [Example 185, Cc1c(sc2ccc(CNC(═O)c3cc(O)c(O)c(O)c3)cc12)-c4ccnc(N)n4] | < 5 µM | > 5 µM |  | 
16 | COc1cc(NC(=O)c2sc3nc(-c4ccncc4)ccc3c2N)cc(OC)c1OC [Example 94] | < 5 µM | < 5 µM |  | 
17 | COc1nccc(Nc2ccc3sc(-c4ccnc(N)n4)c(C)c3c2)n1 [Example 74, 4-(5-(2-Methoxypyrimidin-4-ylamino)-3-methylbenzo[b]thiophen-2-yl)pyrimidin-2-amine] | < 5 µM | < 5 µM |  | 
18 | CC(=O)Oc1ccc(C(=O)NCc2ccc3sc(-c4ccnc(N)n4)c(C)c3c2)cc1 [Example 208, CC(═O)Oc1ccc(cc1)C(═O)NCc2ccc3sc(c(C)c3c2)-c4ccnc(N)n4] | < 5 µM | < 5 µM |  | 
